Where two headings read alike, the source gives them in different places.
Tested on: stroke rats
[1] = 2.5 μmol/kg 5Ak after 6 hours from stroke onset, 1st day
[2] = 2.5 μmol/kg 5Ak after 6 hours from stroke onset, 2nd day
[3] = 2.5 μmol/kg 5Ak after 6 hours from stroke onset, 3rd day
[4] = 2.5 μmol/kg 5Ak after 6 hours from stroke onset, 4th day
[5] = 2.5 μmol/kg 5Ak after 6 hours from stroke onset, 5th day
[6] = 2.5 μmol/kg 5Ak after 6 hours from stroke onset, 6th day
[7] = 2.5 μmol/kg 5Ak after 24 hours from stroke onset, 1st day
[8] = 2.5 μmol/kg 5Ak after 24 hours from stroke onset, 2nd day
[9] = 2.5 μmol/kg 5Ak after 24 hours from stroke onset, 3rd day
[10] = 2.5 μmol/kg 5Ak after 24 hours from stroke onset, 4th day
[11] = 2.5 μmol/kg 5Ak after 24 hours from stroke onset, 5th day
[12] = 2.5 μmol/kg 5Ak after 24 hours from stroke onset, 6th day
[13] = 5 μmol/kg 5Ak after 24 hours from stroke onset, 1st day
[14] = 5 μmol/kg 5Ak after 24 hours from stroke onset, 2nd day
[15] = 5 μmol/kg 5Ak after 24 hours from stroke onset, 3rd day
[16] = 5 μmol/kg 5Ak after 24 hours from stroke onset, 4th day
[17] = 5 μmol/kg 5Ak after 24 hours from stroke onset, 5th day
[18] = 5 μmol/kg 5Ak after 24 hours from stroke onset, 6th day
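Also: male SD rats with thrombus-induced cerebral embolism via internal carotid artery, scored daily by Zealonga neurological deficit scale (0 no deficit to 5 death), lower score better.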

Method: The therapeutic effect was evaluated by neurological functional scores. The lower the score was, the better the therapeutic effect was. A 10% chloral hydrate solution was injected intraperitoneally into male SD rats at a dosage of 400 mg/kg body weight for anesthesia. A longitudinal incision was made at the center of the neck, and the right common carotid artery trunk was separated (about 3 cm in length). External carotid artery branches were each separated and ligated at the hyoid level, and the internal carotid artery was separated from the swollen part of the neck. The incision of the internal carotid artery and the proximal end of the common carotid artery were clipped respectively with noninvasive arterial clips, and the distal end of the external carotid artery was ligated. A catheter containing 0.5 mL thrombus suspension in normal saline was inserted in the external carotid artery trunk. When the clip on the internal carotid artery was released, the 0.5 mL thrombus suspension in normal saline in the catheter slowly flew from the external carotid artery to its proximal end, and then was injected into the arteries in brain through the internal carotid artery. Subsequently, the proximal end of the internal carotid artery was ligated, the arterial clips on the internal carotid artery and the common carotid artery were released, and blood flow was restored. After the wound was stitched up, 20,000 IU penicillin was intramuscularly injected for prevention from infection. […] Self-comparison was performed each day, and the neurological deficit degree was evaluated by the Zealonga method. A score of 0 indicated no sign of loss in neural function, 1 indicated the front limbs on the undamaged side could not stretch out, 2 indicated walking toward the undamaged side, 3 indicated tail-chasing walking in circles toward the undamaged side, 4 indicated involuntary walking with disturbance of consciousness, and 5 indicated death.

## C[C@H](NC(=O)[C@@H]1CCCN1)C(=O)N[C@@H](CCCCN)C(=O)NCCCC[C@H](NC(=O)[C@@H]1Cc2cc(O)c(O)cc2C(C)(C)N1)C(=O)O [Compound 5Ak, 3S-6,7-dihydroxy-1,1-dimethyl-1,2,3,4-tetrahydro-isoquinoline-3-acyl-Lys(Pro-Ala-Lys)]
2.5 μmol/kg 5Ak after 6 hours from stroke onset
  therapeutic effect, result in words: better therapeutic effect than 1 μmol/kg 5Ak
[1]
  Daily neural function scores, number of rats under 0 score: 1
  Daily neural function scores, number of rats under 1 score: 7
  Daily neural function scores, number of rats under 2 scores: 0
  Daily neural function scores, number of rats under 3 scores: 1
  Daily neural function scores, number of rats under 4 scores: 0
  Daily neural function scores, number of rats under 5 scores: 0
[2]
  Daily neural function scores, number of rats under 0 score: 3
  Daily neural function scores, number of rats under 1 score: 4
  Daily neural function scores, number of rats under 2 scores: 2
  Daily neural function scores, number of rats under 3 scores: 0
  Daily neural function scores, number of rats under 4 scores: 0
  Daily neural function scores, number of rats under 5 scores: 0
[3]
  Daily neural function scores, number of rats under 0 score: 6
  Daily neural function scores, number of rats under 1 score: 2
  Daily neural function scores, number of rats under 2 scores: 1
  Daily neural function scores, number of rats under 3 scores: 0
  Daily neural function scores, number of rats under 4 scores: 0
  Daily neural function scores, number of rats under 5 scores: 0
[4]
  Daily neural function scores, number of rats under 0 score: 6
  Daily neural function scores, number of rats under 1 score: 3
  Daily neural function scores, number of rats under 2 scores: 0
  Daily neural function scores, number of rats under 3 scores: 0
  Daily neural function scores, number of rats under 4 scores: 0
  Daily neural function scores, number of rats under 5 scores: 0
[5]
  Daily neural function scores, number of rats under 0 score: 5
  Daily neural function scores, number of rats under 1 score: 4
  Daily neural function scores, number of rats under 2 scores: 0
  Daily neural function scores, number of rats under 3 scores: 0
  Daily neural function scores, number of rats under 4 scores: 0
  Daily neural function scores, number of rats under 5 scores: 0
[6]
  Daily neural function scores, number of rats under 0 score: 7
  Daily neural function scores, number of rats under 1 score: 2
  Daily neural function scores, number of rats under 2 scores: 0
  Daily neural function scores, number of rats under 3 scores: 0
  Daily neural function scores, number of rats under 4 scores: 0
  Daily neural function scores, number of rats under 5 scores: 0
2.5 μmol/kg 5Ak after 24 hours from stroke onset
  therapeutic effect, result in words: certain therapeutic effect
[7]
  Daily neural function scores, number of rats under 0 score: 1
  Daily neural function scores, number of rats under 1 score: 4
  Daily neural function scores, number of rats under 2 scores: 1
  Daily neural function scores, number of rats under 3 scores: 0
  Daily neural function scores, number of rats under 4 scores: 1
  Daily neural function scores, number of rats under 5 scores: 0
[8]
  Daily neural function scores, number of rats under 0 score: 3
  Daily neural function scores, number of rats under 1 score: 2
  Daily neural function scores, number of rats under 2 scores: 1
  Daily neural function scores, number of rats under 3 scores: 1
  Daily neural function scores, number of rats under 4 scores: 0
  Daily neural function scores, number of rats under 5 scores: 0
[9]
  Daily neural function scores, number of rats under 0 score: 3
  Daily neural function scores, number of rats under 1 score: 2
  Daily neural function scores, number of rats under 2 scores: 1
  Daily neural function scores, number of rats under 3 scores: 0
  Daily neural function scores, number of rats under 4 scores: 0
  Daily neural function scores, number of rats under 5 scores: 1
[10]
  Daily neural function scores, number of rats under 0 score: 2
  Daily neural function scores, number of rats under 1 score: 2
  Daily neural function scores, number of rats under 2 scores: 1
  Daily neural function scores, number of rats under 3 scores: 1
  Daily neural function scores, number of rats under 4 scores: 0
  Daily neural function scores, number of rats under 5 scores: 0
[11]
  Daily neural function scores, number of rats under 0 score: 4
  Daily neural function scores, number of rats under 1 score: 0
  Daily neural function scores, number of rats under 2 scores: 1
  Daily neural function scores, number of rats under 3 scores: 0
  Daily neural function scores, number of rats under 4 scores: 0
  Daily neural function scores, number of rats under 5 scores: 1
[12]
  Daily neural function scores, number of rats under 0 score: 3
  Daily neural function scores, number of rats under 1 score: 1
  Daily neural function scores, number of rats under 2 scores: 1
  Daily neural function scores, number of rats under 3 scores: 0
  Daily neural function scores, number of rats under 4 scores: 0
  Daily neural function scores, number of rats under 5 scores: 0
2.5 μmol/kg 5Ak once per day after 6 hours from stroke onset, nine rats
  rats that died during successive 6-day treatment: no death occurred
2.5 μmol/kg 5Ak once per day after 24 hours from stroke onset, seven rats
  rats that died during successive 6-day treatment: two
5 μmol/kg 5Ak after 24 hours from stroke onset
  therapeutic effect, result in words: definite therapeutic effect
[13]
  Daily neural function scores, number of rats under 0 score: 0
  Daily neural function scores, number of rats under 1 score: 5
  Daily neural function scores, number of rats under 2 scores: 4
  Daily neural function scores, number of rats under 3 scores: 0
  Daily neural function scores, number of rats under 4 scores: 1
  Daily neural function scores, number of rats under 5 scores: 0
[14]
  Daily neural function scores, number of rats under 0 score: 2
  Daily neural function scores, number of rats under 1 score: 6
  Daily neural function scores, number of rats under 2 scores: 2
  Daily neural function scores, number of rats under 3 scores: 0
  Daily neural function scores, number of rats under 4 scores: 0
  Daily neural function scores, number of rats under 5 scores: 0
[15]
  Daily neural function scores, number of rats under 0 score: 2
  Daily neural function scores, number of rats under 1 score: 6
  Daily neural function scores, number of rats under 2 scores: 2
  Daily neural function scores, number of rats under 3 scores: 0
  Daily neural function scores, number of rats under 4 scores: 0
  Daily neural function scores, number of rats under 5 scores: 0
[16]
  Daily neural function scores, number of rats under 0 score: 5
  Daily neural function scores, number of rats under 1 score: 5
  Daily neural function scores, number of rats under 2 scores: 0
  Daily neural function scores, number of rats under 3 scores: 0
  Daily neural function scores, number of rats under 4 scores: 0
  Daily neural function scores, number of rats under 5 scores: 0
[17]
  Daily neural function scores, number of rats under 0 score: 6
  Daily neural function scores, number of rats under 1 score: 4
  Daily neural function scores, number of rats under 2 scores: 0
  Daily neural function scores, number of rats under 3 scores: 0
  Daily neural function scores, number of rats under 4 scores: 0
  Daily neural function scores, number of rats under 5 scores: 0
[18]
  Daily neural function scores, number of rats under 0 score: 7
  Daily neural function scores, number of rats under 1 score: 3
  Daily neural function scores, number of rats under 2 scores: 0
  Daily neural function scores, number of rats under 3 scores: 0
  Daily neural function scores, number of rats under 4 scores: 0
  Daily neural function scores, number of rats under 5 scores: 0
5 μmol/kg 5Ak once per day after 24 hours from stroke onset, ten rats
  rats that died during successive 6-day treatment: no death occurred
